Results from PubChem BioAssay AID1259407 (Chemical Carcinogenesis Research Information System (CCRIS), 2018).
Activity calls are given as the source filed them. The rule behind the calls is not given here.

System: CCRIS mutagenicity, Ames/micronucleus/aberration tests
Experiment: CCRIS mutagenicity studies
[1] = Test System: AMES SALMONELLA TYPHIMURIUM, Strain/Indicator: TA98, Metabolic Activation: NONE, Method: PREINCUBATION
[2] = Test System: AMES SALMONELLA TYPHIMURIUM, Strain/Indicator: TA100, Metabolic Activation: NONE, Method: PREINCUBATION

Cc1ccc2ccc3ccc(C)cc3c2c1
mutagenic call (Test System: AMES SALMONELLA TYPHIMURIUM, Strain/Indicator: TA97, Metabolic Activation: NONE, Method: STANDARD PLATE): inactive; negative | mutagenic call (Test System: AMES SALMONELLA TYPHIMURIUM, Strain/Indicator: TA97, Metabolic Activation: RAT, LIVER, S-9, PCB, Method: STANDARD PLATE): inactive; negative | mutagenic call (Test System: AMES SALMONELLA TYPHIMURIUM, Strain/Indicator: TA98, Metabolic Activation: NONE, Method: STANDARD PLATE): inactive; negative | mutagenic call (Test System: AMES SALMONELLA TYPHIMURIUM, Strain/Indicator: TA98, Metabolic Activation: RAT, LIVER, S-9, PCB, Method: STANDARD PLATE): active; positive | mutagenic call (Test System: AMES SALMONELLA TYPHIMURIUM, Strain/Indicator: TA100, Metabolic Activation: NONE, Method: STANDARD PLATE): inactive; negative | mutagenic call (Test System: AMES SALMONELLA TYPHIMURIUM, Strain/Indicator: TA100, Metabolic Activation: RAT, LIVER, S-9, PCB, Method: STANDARD PLATE): inactive; negative

CC(C)(C)OOC(=O)c1ccccc1
mutagenic call (Test System: AMES SALMONELLA TYPHIMURIUM, Strain/Indicator: TA98, Metabolic Activation: HAMSTER, LIVER, S-9, AROCLOR 1254 (10%), Method: PREINCUBATION): active; positive | mutagenic call [1]: active; positive | mutagenic call (Test System: AMES SALMONELLA TYPHIMURIUM, Strain/Indicator: TA98, Metabolic Activation: RAT, LIVER, S-9, AROCLOR 1254 (10%), Method: PREINCUBATION): active; positive | mutagenic call (Test System: AMES SALMONELLA TYPHIMURIUM, Strain/Indicator: TA100, Metabolic Activation: HAMSTER, LIVER, S-9, AROCLOR 1254 (10%), Method: PREINCUBATION): active; positive | mutagenic call [2]: inactive; negative | mutagenic call (Test System: AMES SALMONELLA TYPHIMURIUM, Strain/Indicator: TA100, Metabolic Activation: RAT, LIVER, S-9, AROCLOR 1254 (10%), Method: PREINCUBATION): inactive; negative | mutagenic call (Test System: AMES SALMONELLA TYPHIMURIUM, Strain/Indicator: TA1535, Metabolic Activation: HAMSTER, LIVER, S-9, AROCLOR 1254 (10%), Method: PREINCUBATION): inactive; negative | mutagenic call (Test System: AMES SALMONELLA TYPHIMURIUM, Strain/Indicator: TA1535, Metabolic Activation: NONE, Method: PREINCUBATION): inactive; negative | mutagenic call (Test System: AMES SALMONELLA TYPHIMURIUM, Strain/Indicator: TA1535, Metabolic Activation: RAT, LIVER, S-9, AROCLOR 1254 (10%), Method: PREINCUBATION): inactive; negative | mutagenic call (Test System: AMES SALMONELLA TYPHIMURIUM, Strain/Indicator: TA1537, Metabolic Activation: HAMSTER, LIVER, S-9, AROCLOR 1254 (10%), Method: PREINCUBATION): active; positive | mutagenic call (Test System: AMES SALMONELLA TYPHIMURIUM, Strain/Indicator: TA1537, Metabolic Activation: NONE, Method: PREINCUBATION): active; positive | mutagenic call (Test System: AMES SALMONELLA TYPHIMURIUM, Strain/Indicator: TA1537, Metabolic Activation: RAT, LIVER, S-9, AROCLOR 1254 (10%), Method: PREINCUBATION): active; positive

Cc1ccc2c(c1N)C(=O)c1ccccc1C2=O
mutagenic call (Test System: AMES SALMONELLA TYPHIMURIUM, Strain/Indicator: TA98, Metabolic Activation: HAMSTER, LIVER, S-9, AROCLOR 1254 (30%), Method: PREINCUBATION): active; positive | mutagenic call [1]: inactive; negative | mutagenic call (Test System: AMES SALMONELLA TYPHIMURIUM, Strain/Indicator: TA98, Metabolic Activation: RAT, LIVER, S-9, AROCLOR 1254 (30%), Method: PREINCUBATION): active; positive | mutagenic call (Test System: AMES SALMONELLA TYPHIMURIUM, Strain/Indicator: TA100, Metabolic Activation: HAMSTER, LIVER, S-9, AROCLOR 1254 (30%), Method: PREINCUBATION): inactive; negative | mutagenic call [2]: inactive; negative | mutagenic call (Test System: AMES SALMONELLA TYPHIMURIUM, Strain/Indicator: TA100, Metabolic Activation: RAT, LIVER, S-9, AROCLOR 1254 (30%), Method: PREINCUBATION): active; positive | mutagenic call (Test System: AMES SALMONELLA TYPHIMURIUM, Strain/Indicator: TA1537 R+, Metabolic Activation: NONE, Method: STANDARD PLATE): active; positive | mutagenic call (Test System: AMES SALMONELLA TYPHIMURIUM, Strain/Indicator: TA1537 R+, Metabolic Activation: RAT, LIVER, S-9, AROCLOR 1254, Method: STANDARD PLATE): active; positive | mutagenic call (Test System: MOUSE LYMPHOMA, Strain/Indicator: L5178Y (TK+/TK-), Metabolic Activation: NONE, Method: SUSPENSION/PLATE): active; positive
